Laboratory results from US20230074545A1, “TREATMENT OF CANCER WITH CDK12/13 INHIBITORS” (Kinnate Biopharma Inc., priority 2019, published 2023).

Columns and labels:
[1] = target: T1, ACK1 (Homo sapiens, UniProt Q07912); assay: Radiometric kinase panel; format: biochemical
T1 construct: either as full-length or enzymatically active fragments; purchased ProQinase GmbH (Reaction Biology)
In short: (§1)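 Activity was measured radiometrically from [gamma-33P]-ATP incorporation into substrate. The kinases were recombinant human GST- or His-tagged proteins, full-length or active fragments, expressed in Sf9 or E. coli. Compound in 10% DMSO was added before the enzyme/substrate mix, which started the reaction.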

[2] = target: T2, AuroraA (Homo sapiens, UniProt O14965); assay: Radiometric kinase panel; format: biochemical
T2 construct: either as full-length or enzymatically active fragments; purchased ProQinase GmbH (Reaction Biology)
In short: as §1

[3] = target: T3, CDC42BPB (Homo sapiens, UniProt Q9Y5S2); assay: Radiometric kinase panel; format: biochemical
T3 construct: either as full-length or enzymatically active fragments; purchased ProQinase GmbH (Reaction Biology)
T3 sequence (Q9Y5S2 whole entry, the tested form may be a part): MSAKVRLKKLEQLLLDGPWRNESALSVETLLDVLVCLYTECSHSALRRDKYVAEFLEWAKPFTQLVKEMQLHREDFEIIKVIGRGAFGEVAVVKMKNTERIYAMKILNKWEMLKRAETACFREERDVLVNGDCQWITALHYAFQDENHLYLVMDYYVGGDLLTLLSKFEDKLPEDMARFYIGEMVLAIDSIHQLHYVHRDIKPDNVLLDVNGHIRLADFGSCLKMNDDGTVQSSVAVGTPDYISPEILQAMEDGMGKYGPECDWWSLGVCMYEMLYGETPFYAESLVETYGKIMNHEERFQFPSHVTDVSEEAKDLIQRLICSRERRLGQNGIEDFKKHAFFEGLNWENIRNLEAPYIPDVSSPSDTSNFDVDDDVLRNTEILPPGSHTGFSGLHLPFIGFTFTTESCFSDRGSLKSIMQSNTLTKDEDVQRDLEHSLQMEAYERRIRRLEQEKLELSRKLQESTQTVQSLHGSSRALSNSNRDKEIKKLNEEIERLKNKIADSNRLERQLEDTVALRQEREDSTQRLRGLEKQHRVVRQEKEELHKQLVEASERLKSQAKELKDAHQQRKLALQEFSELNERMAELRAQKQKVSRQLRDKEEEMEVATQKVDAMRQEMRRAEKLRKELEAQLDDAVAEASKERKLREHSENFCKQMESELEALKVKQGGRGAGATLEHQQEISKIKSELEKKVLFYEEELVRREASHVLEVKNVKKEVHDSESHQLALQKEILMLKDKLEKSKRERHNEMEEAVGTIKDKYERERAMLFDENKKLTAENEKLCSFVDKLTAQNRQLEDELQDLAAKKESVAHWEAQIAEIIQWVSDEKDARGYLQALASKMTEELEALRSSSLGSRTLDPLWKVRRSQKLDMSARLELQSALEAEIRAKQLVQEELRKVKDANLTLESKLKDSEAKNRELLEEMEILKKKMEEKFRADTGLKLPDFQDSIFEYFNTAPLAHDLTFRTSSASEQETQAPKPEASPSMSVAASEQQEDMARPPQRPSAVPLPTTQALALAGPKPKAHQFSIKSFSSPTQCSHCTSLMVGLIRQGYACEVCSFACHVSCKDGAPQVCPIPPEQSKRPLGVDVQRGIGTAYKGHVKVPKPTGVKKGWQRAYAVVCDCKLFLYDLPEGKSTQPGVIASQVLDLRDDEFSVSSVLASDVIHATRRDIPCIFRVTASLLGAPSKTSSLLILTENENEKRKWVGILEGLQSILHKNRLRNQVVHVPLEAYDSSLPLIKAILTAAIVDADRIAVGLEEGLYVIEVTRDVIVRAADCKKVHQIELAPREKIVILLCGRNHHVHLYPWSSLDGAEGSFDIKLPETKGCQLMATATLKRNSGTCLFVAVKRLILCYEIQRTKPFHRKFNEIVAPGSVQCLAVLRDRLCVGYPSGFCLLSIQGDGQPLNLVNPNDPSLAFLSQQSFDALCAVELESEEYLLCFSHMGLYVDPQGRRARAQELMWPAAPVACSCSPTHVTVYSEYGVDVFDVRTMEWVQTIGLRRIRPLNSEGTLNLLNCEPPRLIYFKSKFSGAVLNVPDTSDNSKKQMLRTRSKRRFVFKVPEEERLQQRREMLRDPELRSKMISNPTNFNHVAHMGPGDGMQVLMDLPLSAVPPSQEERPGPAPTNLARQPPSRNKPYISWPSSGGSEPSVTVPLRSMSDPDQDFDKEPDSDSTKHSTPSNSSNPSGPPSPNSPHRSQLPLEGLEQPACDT
In short: as §1

[4] = target: T4, CDK17/p35NCK (Homo sapiens, UniProt Q00537); assay: Radiometric kinase panel; format: biochemical
T4 construct: either as full-length or enzymatically active fragments; purchased ProQinase GmbH (Reaction Biology); host or cells: Sf9 insect cells or E. coli
T4 sequence (Q00537 whole entry, the tested form may be a part): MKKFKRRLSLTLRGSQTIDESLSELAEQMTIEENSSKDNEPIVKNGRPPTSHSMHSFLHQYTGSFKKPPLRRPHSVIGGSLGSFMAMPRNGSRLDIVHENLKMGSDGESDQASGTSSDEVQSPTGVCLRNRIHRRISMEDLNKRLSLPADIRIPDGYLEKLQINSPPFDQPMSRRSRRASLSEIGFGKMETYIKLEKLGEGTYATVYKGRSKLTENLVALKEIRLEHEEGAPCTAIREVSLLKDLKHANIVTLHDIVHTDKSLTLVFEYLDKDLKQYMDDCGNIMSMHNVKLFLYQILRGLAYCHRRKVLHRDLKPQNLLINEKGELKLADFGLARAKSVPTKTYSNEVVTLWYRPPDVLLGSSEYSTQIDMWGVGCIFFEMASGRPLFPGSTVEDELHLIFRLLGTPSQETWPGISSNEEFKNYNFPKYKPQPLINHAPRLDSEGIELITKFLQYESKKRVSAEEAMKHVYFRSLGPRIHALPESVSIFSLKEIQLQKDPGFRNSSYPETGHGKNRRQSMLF
T4 sequence (Q15078 whole entry partner, the tested form may be a part): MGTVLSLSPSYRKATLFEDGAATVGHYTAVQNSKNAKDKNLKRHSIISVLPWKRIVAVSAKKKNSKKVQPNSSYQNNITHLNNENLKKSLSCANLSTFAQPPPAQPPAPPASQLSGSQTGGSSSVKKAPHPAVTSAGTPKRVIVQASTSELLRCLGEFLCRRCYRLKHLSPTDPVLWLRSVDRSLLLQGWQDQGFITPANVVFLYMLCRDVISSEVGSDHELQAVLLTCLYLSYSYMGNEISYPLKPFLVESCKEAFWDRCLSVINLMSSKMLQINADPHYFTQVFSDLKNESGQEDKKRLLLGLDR
In short: as §1

[5] = target: T5, CDK7/CycH/MAT1 (Homo sapiens, UniProt P50613); assay: Radiometric kinase panel; format: biochemical
T5 construct: either as full-length or enzymatically active fragments; purchased ProQinase GmbH (Reaction Biology)
T5 sequence (P50613 whole entry, the tested form may be a part): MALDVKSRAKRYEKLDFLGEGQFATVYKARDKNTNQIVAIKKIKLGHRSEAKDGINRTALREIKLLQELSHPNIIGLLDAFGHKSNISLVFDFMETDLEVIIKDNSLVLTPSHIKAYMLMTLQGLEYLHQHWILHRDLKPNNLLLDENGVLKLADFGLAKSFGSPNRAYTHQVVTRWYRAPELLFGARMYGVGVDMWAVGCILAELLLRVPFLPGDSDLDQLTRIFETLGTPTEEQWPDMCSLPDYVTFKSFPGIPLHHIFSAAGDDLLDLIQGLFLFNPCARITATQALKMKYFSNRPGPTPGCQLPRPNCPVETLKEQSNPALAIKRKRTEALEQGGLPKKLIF
T5 sequence (P51946 whole entry partner, the tested form may be a part): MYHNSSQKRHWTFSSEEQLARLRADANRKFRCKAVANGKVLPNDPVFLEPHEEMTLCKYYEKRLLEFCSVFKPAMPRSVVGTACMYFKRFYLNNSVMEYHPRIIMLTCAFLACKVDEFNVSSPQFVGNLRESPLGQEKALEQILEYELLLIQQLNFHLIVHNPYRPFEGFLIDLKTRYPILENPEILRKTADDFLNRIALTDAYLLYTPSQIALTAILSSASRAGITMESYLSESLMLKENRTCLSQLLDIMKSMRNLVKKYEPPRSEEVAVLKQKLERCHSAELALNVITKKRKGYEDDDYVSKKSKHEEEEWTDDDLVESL
T5 sequence (P51948 whole entry partner, the tested form may be a part): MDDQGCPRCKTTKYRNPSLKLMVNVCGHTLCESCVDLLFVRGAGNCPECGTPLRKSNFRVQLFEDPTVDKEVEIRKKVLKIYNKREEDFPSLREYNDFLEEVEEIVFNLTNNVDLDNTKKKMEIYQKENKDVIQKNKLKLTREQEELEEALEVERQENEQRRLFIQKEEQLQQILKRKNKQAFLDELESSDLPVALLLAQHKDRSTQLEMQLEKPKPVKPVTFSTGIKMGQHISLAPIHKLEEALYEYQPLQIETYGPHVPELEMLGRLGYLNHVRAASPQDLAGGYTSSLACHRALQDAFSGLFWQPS
In short: as §1

[6] = target: T6, HIPK4 (Homo sapiens, UniProt Q8NE63); assay: Radiometric kinase panel; format: biochemical
T6 construct: either as full-length or enzymatically active fragments; purchased ProQinase GmbH (Reaction Biology); host or cells: Sf9 insect cells or E. coli
T6 sequence (Q8NE63 whole entry, the tested form may be a part): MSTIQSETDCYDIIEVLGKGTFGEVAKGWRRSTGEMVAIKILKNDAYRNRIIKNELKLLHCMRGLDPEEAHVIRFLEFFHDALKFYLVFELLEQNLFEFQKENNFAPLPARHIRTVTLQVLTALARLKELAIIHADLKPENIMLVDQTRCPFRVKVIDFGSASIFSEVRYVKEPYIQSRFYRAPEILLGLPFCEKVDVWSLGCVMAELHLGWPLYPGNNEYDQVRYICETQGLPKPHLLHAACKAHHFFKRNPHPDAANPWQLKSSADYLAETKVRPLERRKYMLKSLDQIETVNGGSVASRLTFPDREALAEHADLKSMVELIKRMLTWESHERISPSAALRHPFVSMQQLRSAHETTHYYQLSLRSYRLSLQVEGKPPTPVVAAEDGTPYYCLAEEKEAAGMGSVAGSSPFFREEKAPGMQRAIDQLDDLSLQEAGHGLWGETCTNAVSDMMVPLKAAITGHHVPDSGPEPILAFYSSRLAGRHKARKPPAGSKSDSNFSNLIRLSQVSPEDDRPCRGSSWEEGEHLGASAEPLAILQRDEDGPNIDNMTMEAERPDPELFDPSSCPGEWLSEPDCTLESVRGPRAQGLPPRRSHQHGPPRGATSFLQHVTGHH
In short: as §1

[7] = target: T7, LYN (Homo sapiens, UniProt P07948); assay: Radiometric kinase panel; format: biochemical
T7 construct: either as full-length or enzymatically active fragments; purchased ProQinase GmbH (Reaction Biology)
In short: as §1

[8] = target: T8, MKNK1 (Homo sapiens, UniProt Q9BUB5); assay: Radiometric kinase panel; format: biochemical
T8 construct: purchased ProQinase GmbH (Reaction Biology)
T8 sequence (Q9BUB5 whole entry): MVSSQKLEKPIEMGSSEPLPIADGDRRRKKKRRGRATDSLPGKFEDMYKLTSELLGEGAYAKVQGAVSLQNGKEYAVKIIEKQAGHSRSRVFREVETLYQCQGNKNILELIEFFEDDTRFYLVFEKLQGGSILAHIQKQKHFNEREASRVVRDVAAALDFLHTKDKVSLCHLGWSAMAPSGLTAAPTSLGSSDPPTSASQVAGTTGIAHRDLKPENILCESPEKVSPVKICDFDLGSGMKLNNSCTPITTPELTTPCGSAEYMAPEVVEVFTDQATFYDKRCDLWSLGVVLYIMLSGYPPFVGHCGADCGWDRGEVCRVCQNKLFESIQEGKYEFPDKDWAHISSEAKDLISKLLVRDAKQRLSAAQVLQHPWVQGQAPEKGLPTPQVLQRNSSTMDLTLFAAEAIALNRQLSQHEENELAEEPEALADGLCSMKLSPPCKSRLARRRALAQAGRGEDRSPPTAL
In short: as §1

[9] = target: T9, PIM3 (Homo sapiens, UniProt Q86V86); assay: Radiometric kinase panel; format: biochemical
T9 construct: either as full-length or enzymatically active fragments; purchased ProQinase GmbH (Reaction Biology)
In short: as §1

[10] = target: T10, TSK2 (Homo sapiens, UniProt Q96PF2); assay: Radiometric kinase panel; format: biochemical
T10 construct: purchased ProQinase GmbH (Reaction Biology)
In short: as §1

[11] = tested on: OVCAR-3 tumors; assay: OVCAR-3 mouse xenograft model of ovarian cancer; format: in vivo, NOD SCID female mice
From the text: To test the efficacy of the compounds in vivo, studies were done in mouse xenografts. For all studies, general procedures for animal care and housing were done in accordance with the standard, Commission on Life Sciences, National Research Council, Standard operating procedures (SOPs) of Pharmaron, Inc (Beijing, China). The mice were kept in laminar flow rooms at constant temperature and humidity with 3-5 mice in each cage with bedding changed once weekly. Animals were housed in polycarbonate cage which is in the size of 300×180×150 mm^3 and in an environmentally monitored, well-ventilated room maintained at a temperature of (22±3° C.) and a relative humidity of 40%-70% on a 12:12 light:dark cycle with full spectrum lighting. Each animal was assigned an identification number; the following identification method will be applied. Cage cards were labeled with such information as study number, group, sex, dose, animal number, initiation date, study director and telephone number. Animals were identified by ear coding. Animals had free access to irradiation sterilized dry granule food during the entire study period except for time periods specified by the protocol.
For the OVCAR-3 study, NOD SCID female mice bearing the OVCAR-3 tumors were randomized into 5 groups (n=9 mice per group) 17 day post tumor implantation with an average tumor volume of 150 mm^3. Each group received either vehicle (3% DMSO, 97.0% (20% HP-β-CD in water) or 5.0, 10, 20 and 25.0 mg/kg of compound 4 biweekly (Monday, Thursday), a total of 4 doses were intravenously administered through the course of 14 day efficacy study. Immediately after every treatment dose, a saline flush of 0.1 mL were also administered. One last dose was intravenously administered on Day 15 for end of study PK plasma and PD tumor collections as indicated in the protocol. Tumor volumes were measured by caliper 2 times a week and body weights of all animals were recorded throughout the study.
Protocol-required measurements and observations were recorded manually onto excel spread sheets. All statistical tests were conducted, and the level of significance was set at 5% or P<0.05. The group means, standard deviation was calculated for all measurement parameters as study designed. Two-way RM ANOVA followed by Tukeys post hoc comparisons of the means was utilized for this study.

[12] = tested on: RNA polymerase II; assay: Phosphorylation of RNA polymerase II (pS2/S2) in HCC70 xenograft; format: in vivo, CB-17 SCID mice; settings: intravenous; compound 4 20 or 25 mg/kg, compound 5 10 or 25 mg/kg; 0.5, 6 and 24 hours after the dose
Method: The ability of compound 4 and compound 5 to inhibit phosphorylation of RNA polymerase II at the S2 unit was analyzed in a mouse xenograft model of triple-negative breast cancer. CB-17 SCID mice were inoculated with the HCC70 cells as the in vivo model for triple negative breast cancer. Each mouse was inoculated subcutaneously on the right flank with HCC70 tumor cells (5×106) in 0.1 mL of RPMI-1640 Medium and Matrigel mixture (1:1 ratio) for tumor development. The treatment started when the mean tumor size reached approximately 100-150 mm^3. Mice were treated intravenously with vehicle only, 20 mg/kg of compound 4, 25 mg/kg of compound 4, 10 mg/kg of compound 5, or 25 mg/kg of compound 5 for 2 hours. Measurements were taken at 0.5 hours, 6 hours and 24 hours after the dose. The amount of phosphorylated RNA polymerase II and the total amount of RNA polymerase II was analyzed. The values were normalized by taking the ratio of the phosphorylated RNA polymerase II to the total RNA polymerase II (pS2/S2).

For C=CC(=O)Nc1ccc(C(=O)N2CC[C@@H](Nc3ncc(C#N)cn3)C2)cc1 [Compound 4, (R)-N-(4-(3-((5-cyanopyrimidin-2-yl)amino)pyrrolidine-1-carbonyl)phenyl)acrylamide], the inhibition at 1 µM [1] was 6%, the inhibition at 1 µM [2] was 5% and the inhibition at 1 µM [3] was 7%. It also gave an inhibition at 1 µM [4] of 12%, an inhibition at 1 µM [5] of 33% and an inhibition at 1 µM [6] of 11%. It also gave an inhibition at 1 µM [7] of -8%, an inhibition at 1 µM [8] of -2% and an inhibition at 1 µM [9] of 4%. For the same compound, the inhibition at 1 µM [10] was -1%, the T/C ([11]; 5.0 mg/kg intravenously biweekly for 14 days, compared to vehicle control) was 36% and the T/C ([11]; 10 mg/kg intravenously biweekly for 14 days, compared to vehicle control) was 13%. For the same compound, the T/C ([11]; 20 mg/kg intravenously biweekly for 14 days) was −7%, the T/C ([11]; 25 mg/kg intravenously biweekly for 14 days) was −9% and the “pS2/S2 compared to treatment with the vehicle alone” value [12] was “reduced the pS2/S2 at all time points”.
